Measurements taken from patent US7884244B2, “Therapeutic fluoroethylcyano guanidines” (Allergan, Inc., priority 2007, dated 2011).

Key:
Assay type in all cases: cell-based
alpha2C receptor = molecular target: T1, alpha2C receptor (Homo sapiens, UniProt P18825); assay: Receptor Selection and Amplification Technology (RSAT) assay, alpha2C; settings: for EC50 / Alpha 2C EC50: RSAT, transfected NIH-3T3 cells with Gq/i5, not active = not active at concentrations less than 10 micromolar; for EC50: read-out: Alpha 2C EC50; for Alpha 2C IA (intrinsic activity): ratio of maximal effect of drug to maximal effect of standard full agonist brimonidine (UK14304)
T1 construct: expressed in transfected cells; host or cells: NIH-3T3 cells
T1 sequence (P18825 1-462): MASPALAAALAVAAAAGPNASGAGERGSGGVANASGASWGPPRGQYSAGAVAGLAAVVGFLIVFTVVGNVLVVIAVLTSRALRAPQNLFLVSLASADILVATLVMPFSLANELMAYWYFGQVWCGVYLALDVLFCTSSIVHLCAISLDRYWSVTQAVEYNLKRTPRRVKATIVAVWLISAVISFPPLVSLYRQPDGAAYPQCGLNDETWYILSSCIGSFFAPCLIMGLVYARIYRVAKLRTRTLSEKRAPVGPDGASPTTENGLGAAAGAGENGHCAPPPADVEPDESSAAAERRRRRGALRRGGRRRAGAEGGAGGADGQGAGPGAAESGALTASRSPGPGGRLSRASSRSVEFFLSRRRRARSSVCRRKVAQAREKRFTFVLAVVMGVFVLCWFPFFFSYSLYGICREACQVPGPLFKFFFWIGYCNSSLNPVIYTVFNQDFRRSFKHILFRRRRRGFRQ
Procedure: (§1) The RSAT assay measures a receptor-mediated loss of contact inhibition that results in selective proliferation of receptor-containing cells in a mixed population of confluent cells. The increase in cell number is assessed with an appropriate transfected marker gene such as […]-galactosidase, the activity of which can be easily measured in a 96-well format. Receptors that activate the G protein, Gq, elicit this response. Alpha2 receptors, which normally couple to Gi, activate the RSAT response when coexpressed with a hybrid Gq protein that has a Gi receptor recognition domain, called Gq/i5.
(§2) NIH-3T3 cells are plated at a density of 2×10^6 cells in 15 cm dishes and maintained in Dulbecco's modified Eagle's medium supplemented with 10% calf serum. One day later, cells are cotransfected by calcium phosphate precipitation with mammalian expression plasmids encoding p-SV-[…]-galactosidase (5-10 μg), receptor (1-2 μg) and G protein (1-2 μg). 40 μg salmon sperm DNA may also be included in the transfection mixture. Fresh media is added on the following day and 1-2 days later, cells are harvested and frozen in 50 assay aliquots. Cells are thawed and 100 μl added to 100 μl aliquots of various concentrations of drugs in triplicate in 96-well dishes. Incubations continue 72-96 hr at 37° C. After washing with phosphate-buffered saline, […]-galactosidase enzyme activity is determined by adding 200 μl of the chromogenic substrate (consisting of 3.5 mM o-nitrophenyl-[…]-D-galactopyranoside and 0.5% nonidet P-40 in phosphate buffered saline), incubating overnight at 30° C. and measuring optical density at 420 nm. The absorbance is a measure of enzyme activity, which depends on cell number and reflects a receptor-mediated cell proliferation. The efficacy or intrinsic activity is calculated as a ratio of the maximal effect of the drug to the maximal effect of a standard full agonist for each receptor subtype. Brimonidine, also called UK14304, the chemical structure of which is shown below, is used as the standard agonist for the alpha2A, alpha2B and alpha2C receptors. The EC50 is the concentration at which the drug effect is half of its maximal effect.
(§3) The results of the RSAT assay with several exemplary compounds of the invention are disclosed in Table 1 above together with the chemical formulas of these exemplary compounds. EC50 values are nanomolar. NA stands for “not active” at concentrations less than 10 micromolar. IA stands for “intrinsic activity.”

alpha2B receptor = molecular target: T2, alpha2B receptor (Homo sapiens, UniProt P18089); assay: Receptor Selection and Amplification Technology (RSAT) assay, alpha2B; settings: for EC50: read-out: Alpha 2B EC50; for Alpha 2B IA (intrinsic activity): ratio of maximal effect of drug to maximal effect of standard full agonist brimonidine (UK14304)
T2 construct: expressed in transfected cells; host or cells: NIH-3T3 cells
T2 sequence (P18089 1-450): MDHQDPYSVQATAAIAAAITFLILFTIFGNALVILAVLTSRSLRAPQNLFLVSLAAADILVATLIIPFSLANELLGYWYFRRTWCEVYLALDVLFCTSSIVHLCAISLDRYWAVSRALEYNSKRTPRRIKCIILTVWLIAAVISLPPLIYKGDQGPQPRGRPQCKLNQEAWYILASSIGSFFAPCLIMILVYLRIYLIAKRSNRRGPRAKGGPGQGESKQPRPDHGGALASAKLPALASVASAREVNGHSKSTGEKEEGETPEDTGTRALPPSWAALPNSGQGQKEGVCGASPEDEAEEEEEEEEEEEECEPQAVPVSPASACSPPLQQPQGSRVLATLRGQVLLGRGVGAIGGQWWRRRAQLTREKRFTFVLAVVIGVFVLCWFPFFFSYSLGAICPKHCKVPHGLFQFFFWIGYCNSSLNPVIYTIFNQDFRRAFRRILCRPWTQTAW
Procedure: as §1, §2, §3

alpha2A receptor = molecular target: T3, alpha2A receptor (Homo sapiens, UniProt P08913); assay: Receptor Selection and Amplification Technology (RSAT) assay, alpha2A; settings: RSAT, transfected NIH-3T3 cells with Gq/i5; not active = not active at concentrations less than 10 micromolar
T3 construct: expressed in transfected cells; host or cells: NIH-3T3 cells
T3 sequence (P08913 1-465): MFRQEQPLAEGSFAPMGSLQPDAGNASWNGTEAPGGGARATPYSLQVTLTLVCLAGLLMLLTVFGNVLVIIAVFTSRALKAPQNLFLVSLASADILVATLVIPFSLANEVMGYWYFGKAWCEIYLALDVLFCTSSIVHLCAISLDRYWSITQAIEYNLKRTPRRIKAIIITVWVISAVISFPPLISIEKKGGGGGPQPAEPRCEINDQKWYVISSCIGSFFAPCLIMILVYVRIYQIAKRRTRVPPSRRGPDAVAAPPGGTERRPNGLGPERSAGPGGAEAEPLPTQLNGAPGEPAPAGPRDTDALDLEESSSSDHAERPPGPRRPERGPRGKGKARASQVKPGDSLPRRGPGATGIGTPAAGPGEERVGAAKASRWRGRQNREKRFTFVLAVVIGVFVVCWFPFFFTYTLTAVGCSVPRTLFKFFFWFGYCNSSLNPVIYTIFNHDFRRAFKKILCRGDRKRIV
Procedure: as §1, §2, §3

[1] = RSAT, transfected NIH-3T3 cells with Gq/i5, not active = not active at concentrations less than 10 micromolar

SMILES | EC50 (alpha2C receptor) [nM] | Alpha 2C IA (intrinsic activity) (alpha2C receptor) | EC50 (alpha2B receptor; [1]) [nM] | Alpha 2B IA (intrinsic activity) (alpha2B receptor) | Alpha 2A EC50 (alpha2A receptor) | Alpha 2C EC50 (alpha2C receptor) | Alpha 2B EC50 (alpha2B receptor; [1])
N#C/N=C(/NCCF)NCc1cccc(Br)c1 | 2640 | 0.32 | 1450 | 0.82 | not active |  | 
N#C/N=C(/NCCF)NC1Cc2ccccc2C1 |  |  | 783 | 0.35 | not active | not active | 
N#C/N=C(/NCCF)NCc1cccc2c1OCC2 | 358 | 0.58 | 341 | 0.87 | not active |  | 
Cc1cccc2c1CCC2N/C(=N\C#N)NCCF (centres unmarked) | 914 | 0.51 | 73.9 | 0.95 | not active |  | 
N#C/N=C(/NCCF)NC1CCc2ccccc21 (centres unmarked) | 1780 | 0.33 | 417 | 0.47 | not active |  | 
N#C/N=C(/NCCF)NC1CCc2c(Br)cccc21 (centres unmarked) |  |  | 2570 | 0.74 | not active | not active | 
N#C/N=C(/NCCF)N[C@H]1CCc2ccccc21 |  |  | 176 | 0.92 | not active | not active | 
N#C/N=C(/NCCF)NC1CCc2c(Cl)cccc21 (centres unmarked) |  |  | 988 | 0.3 | not active | not active | 
N#C/N=C(/NCCF)NC1CCc2c(F)cccc21 (centres unmarked) |  |  | 282 | 0.36 | not active | not active | 
Cc1cccc(CN/C(=N/C#N)NCCF)c1Cl | 472 | 0.84 | 78.9 | 0.93 | not active |  | 
N#C/N=C(\NCCF)NC1CCc2ccc(F)cc21 (centres unmarked) | 376 | 0.4 | 167 | 0.42 | not active |  | 
N#C/N=C(\NCCF)NC1CCc2ccc(Cl)cc21 (centres unmarked) | 946 | 0.36 | 232 | 0.31 | not active |  | 
Cc1ccc2c(c1)C(N/C(=N\C#N)NCCF)CC2 (centres unmarked) |  |  | 518 | 0.34 | not active | not active | 
Cc1cccc2c1CCCC2N/C(=N\C#N)NCCF (centres unmarked) | 1480 | 0.41 | 94.3 | 1.06 | not active |  | 
N#C/N=C(/NCCF)NC1CCCc2c(Cl)cccc21 (centres unmarked) |  |  | 296 | 0.37 | not active | not active | 
CCc1cccc2c1CCCC2N/C(=N\C#N)NCCF (centres unmarked) |  |  |  | 0.35 | not active | not active | high
N#C/N=C(/NCCF)NC1CCCc2c(F)cccc21 (centres unmarked) | 1970 | 0.42 | 231 | 0.69 | not active |  | 
CCc1cccc2c1CCC2N/C(=N\C#N)NCCF (centres unmarked) |  |  | 1040 | 0.59 | not active | not active | 
N#C/N=C(/NCCF)NC1CCc2cccc(Br)c21 (centres unmarked) |  |  | 941 | 0.85 | not active | not active | 
N#C/N=C(\NCCF)NC1CCc2cccc(F)c21 (centres unmarked) |  |  | 475 | 0.65 | not active | not active | 
N#C/N=C(\NCCF)NC1CCc2cccc(Cl)c21 (centres unmarked) |  |  | 642 | 0.7 | not active | not active | 
N#C/N=C(\NCCF)NC1CCc2ccc(F)c(F)c21 (centres unmarked) |  |  | 560 | 0.5 | not active | not active | 
N#C/N=C(\NCCF)NC(Cc1ccccc1)c1ccccc1 (centres unmarked) |  |  | 98.6 | 0.73 | not active | not active | 
